In the NIST ThermoML archive (doi:10.1016/j.jct.2005.09.005):

Experiment: molar heat capacity at constant pressure
Settings: 101.33 kPa, Vacuum adiabatic calorimetry

[2H]O[2H] [water-d2]
molar heat capacity at constant pressure [J/K/mol]
Settings | Crystal | Liquid
5 K | 0.0363 | –
6.58 K | 0.0659 | –
7.08 K | 0.141 | –
7.56 K | 0.12 | –
8.12 K | 0.158 | –
8.61 K | 0.19 | –
9.07 K | 0.222 | –
9.51 K | 0.261 | –
9.94 K | 0.305 | –
10 K | 0.315 | –
10.37 K | 0.358 | –
10.8 K | 0.407 | –
11.22 K | 0.462 | –
11.65 K | 0.523 | –
12.68 K | 0.659 | –
13.4 K | 0.774 | –
14.11 K | 0.8996 | –
14.93 K | 1.051 | –
15 K | 1.07 | –
15.65 K | 1.193 | –
16.38 K | 1.337 | –
17.11 K | 1.492 | –
17.84 K | 1.652 | –
18.58 K | 1.814 | –
19.33 K | 1.982 | –
20 K | 2.125 | –
20.08 K | 2.152 | –
21.87 K | 2.524 | –
24.35 K | 3.102 | –
25 K | 3.246 | –
26.84 K | 3.651 | –
29.35 K | 4.206 | –
30 K | 4.322 | –
31.87 K | 4.729 | –
34.41 K | 5.231 | –
36.93 K | 5.723 | –
39.46 K | 6.213 | –
40 K | 6.304 | –
41.98 K | 6.674 | –
44.5 K | 7.12 | –
47.01 K | 7.558 | –
49.52 K | 8.018 | –
50 K | 8.154 | –
52.01 K | 8.514 | –
54.5 K | 9.012 | –
56.99 K | 9.486 | –
59.48 K | 9.885 | –
60 K | 9.968 | –
62.01 K | 10.32 | –
64.5 K | 10.83 | –
66.98 K | 11.22 | –
69.45 K | 11.66 | –
70 K | 11.72 | –
71.93 K | 12.02 | –
74.43 K | 12.44 | –
76.9 K | 12.74 | –
79.38 K | 13.19 | –
80 K | 13.39 | –
81.85 K | 13.77 | –
82.58 K | 13.86 | –
84.31 K | 14.14 | –
84.89 K | 14.3 | –
87.37 K | 14.74 | –
89.84 K | 15.12 | –
90 K | 15.16 | –
92.31 K | 15.57 | –
94.78 K | 15.98 | –
97.24 K | 16.41 | –
99.71 K | 16.82 | –
100 K | 16.89 | –
102.17 K | 17.25 | –
104.63 K | 17.71 | –
107.09 K | 18.15 | –
109.53 K | 18.67 | –
110 K | 18.7 | –
111.98 K | 19.03 | –
114.42 K | 19.58 | –
116.87 K | 19.92 | –
119.31 K | 20.41 | –
120 K | 20.48 | –
121.79 K | 20.81 | –
124.23 K | 21.21 | –
126.67 K | 21.62 | –
129.11 K | 22.03 | –
130 K | 22.2 | –
131.54 K | 22.45 | –
133.98 K | 22.91 | –
136.41 K | 23.27 | –
138.85 K | 23.7 | –
140 K | 23.89 | –
141.28 K | 24.08 | –
143.71 K | 24.5 | –
146.14 K | 24.9 | –
148.57 K | 25.31 | –
150 K | 25.54 | –
151 K | 25.71 | –
153.43 K | 26.1 | –
155.87 K | 26.52 | –
158.32 K | 26.94 | –
160 K | 27.2 | –
160.81 K | 27.33 | –
163.26 K | 27.73 | –
165.71 K | 28.13 | –
168.15 K | 28.55 | –
170 K | 28.83 | –
170.6 K | 28.97 | –
173.05 K | 29.33 | –
175.5 K | 29.73 | –
177.94 K | 30.14 | –
180 K | 30.47 | –
180.39 K | 30.54 | –
182.83 K | 30.96 | –
185.28 K | 31.33 | –
187.72 K | 31.71 | –
190 K | 32.09 | –
190.17 K | 32.11 | –
192.61 K | 32.48 | –
195.05 K | 32.9 | –
197.5 K | 33.29 | –
199.99 K | 33.7 | –
200 K | 33.7 | –
202.44 K | 34.08 | –
204.88 K | 34.48 | –
207.33 K | 34.88 | –
210 K | 35.29 | –
210.91 K | 35.46 | –
213.05 K | 35.74 | –
215.49 K | 36.17 | –
217.93 K | 36.56 | –
220 K | 36.86 | –
220.38 K | 36.96 | –
222.82 K | 37.34 | –
225.26 K | 37.72 | –
227.71 K | 38.06 | –
230 K | 38.45 | –
230.15 K | 38.5 | –
232.58 K | 38.89 | –
235.03 K | 39.22 | –
237.47 K | 39.55 | –
239.91 K | 39.99 | –
240 K | 40.05 | –
242.35 K | 40.38 | –
244.78 K | 40.92 | –
247.23 K | 41.27 | –
249.73 K | 41.6 | –
250 K | 41.64 | –
252.17 K | 41.99 | –
254.61 K | 42.32 | –
257.04 K | 42.71 | –
257.41 K | 42.2 | –
259.48 K | 43.1 | –
260 K | 43.16 | –
261.91 K | 43.48 | –
262.39 K | 43.37 | –
264.34 K | 43.87 | –
266.76 K | 44.33 | –
269.18 K | 44.87 | –
270 K | 44.55 | –
271.59 K | 45.53 | –
273.99 K | 47.53 | –
274.34 K | – | 85.72
276.82 K | 45.8 | 85.38
278.53 K | – | 85.14
280 K | – | 84.97
282.13 K | – | 84.72
285.21 K | – | 84.64
286.94 K | – | 84.47
289.3 K | – | 84.14
290 K | – | 84.05
291.67 K | – | 83.97
294.02 K | – | 83.81
296.38 K | – | 83.72
298.15 K | – | 83.47
298.72 K | – | 83.56
300 K | – | 83.39
301.66 K | – | 83.39
305.18 K | – | 83.14
308.67 K | – | 83.08
310 K | – | 82.96
312.17 K | – | 82.92
315.64 K | – | 82.85
319.1 K | – | 82.78
320 K | – | 82.7
322.54 K | – | 82.69
325.97 K | – | 82.58
329.39 K | – | 82.62
330 K | – | 82.52
332.72 K | – | 82.55
336.11 K | – | 82.57
339.47 K | – | 82.65
340 K | – | 82.67
342.82 K | – | 82.74
346.15 K | – | 82.71
350 K | – | 82.8
